Experimental data: patent US20240400555A1 (Initial Therapeutics, Inc., priority 2023, published 2024)
pIC50: −log10 of the molar value.

The compounds below were run on MV-4-11 cells (assay: Cell Viability Assay in MV-4-11 Cells). Details: Homo sapiens, MV4-11, 72 h, MV-4-11 cells, 72 h, Cell-Titer Glo; read-out: IC50.
Format: cell-based
Procedure, shortened: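 Luminescent ATP read-out (CellTiter-Glo) after 72 h compound treatment of MV-4-11 leukaemia cells (7,000 per well, IMDM plus 10% FBS). Values expressed relative to DMSO control and derived by four-parameter non-linear regression.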

Row | Compound | pIC50
1 | CNC(=O)c1ccc(-c2cc3c(N(C(=O)c4ccc(-c5cn(C)nn5)cc4F)[C@@H]4CCCNC4)nccc3s2)cc1 [Example 521, (R)-2-fluoro-4-(1-methyl-1H-1,2,3-triazol-4-yl)-N-(2-(4-(methylcarbamoyl)phenyl)thieno[3,2-c]pyridin-4-yl)-N-(piperidin-3-yl)benzamide] | 6.12
2 | Cc1cc(F)cc2ccnc(N(C(=O)c3ccc(-c4cn(C)nn4)cc3F)[C@H]3CCCNC3)c12 [Example 620, 2-fluoro-N-(6-fluoro-8-methyl-1-isoquinolyl)-4-(1-methyltriazol-4-yl)-N-[(3S)-3-piperidyl]benzamide] | < 5.23
3 | NC(=O)c1ccc(-c2cc3c(N(C(=O)c4ccc(-n5nnc6cccnc65)cc4F)[C@@H]4CCCNC4)nccc3s2)cc1C(F)(F)F [Example 573, 4-[4-[[2-fluoro-4-(triazolo [4,5-b]pyridin-3-yl)benzoyl]-[(3R)-3-piperidyl]amino]thieno [3,2-c]pyridin-2-yl]-2-(trifluoromethyl) benzamide] | 6.64
4 | Cc1cccc2ccnc(N(C(=O)c3ccc(Nc4nccc(-c5ccncc5)n4)cc3F)[C@@H]3CCCNC3)c12 [Example 558, (R)-2-fluoro-N-(8-methylisoquinolin-1-yl)-N-(piperidin-3-yl)-4-((4-(pyridin-4-yl)pyrimidin-2-yl)amino)benzamide] | 7.96
5 | Cn1cc(-c2ccc(C(=O)N(c3nccc4sc(-c5cccc(C(=O)NCCO)c5)cc34)[C@@H]3CCCNC3)c(F)c2)nn1 [Example 542, 2-fluoro-N-[2-[3-(2-hydroxyethylcarbamoyl)phenyl]thieno[3,2-c]pyridin-4-yl]-4-(1-methyltriazol-4-yl)-N-[(3R)-3-piperidyl]benzamide] | 5.20
6 | Cc1ncc(-c2cc3c(N(C(=O)c4ccc(-c5cn(C)nn5)cc4F)[C@@H]4CCCNC4)nccc3s2)s1 [Example 483, (R)-2-fluoro-4-(1-methyl-1H-1,2,3-triazol-4-yl)-N-(2-(2-methylthiazol-5-yl)thieno[3,2-c]pyridin-4-yl)-N-(piperidin-3-yl)benzamide] | 6.47
7 | O=C(O)c1nc(-c2cc3c(N(C(=O)c4ccc(-n5nnc6cccnc65)cc4F)[C@@H]4CCCNC4)nccc3s2)cs1 [Example 502, 4-[4-[[2-fluoro-4-(triazolo[4,5-b]pyridin-3-yl)benzoyl]-[(3R)-3-piperidyl]amino]thieno[3,2-c]pyridin-2-yl]thiazole-2-carboxylic acid] | 5.68
8 | CCc1cc(-n2nnc3cccnc32)ccc1C(=O)N(c1nccc2cccc(C)c12)[C@@H]1CCCNC1 [Example 307, (R)-4-(3H-[1,2,3]triazolo[4,5-b]pyridin-3-yl)-2-ethyl-N-(8-methylisoquinolin-1-yl)-N-(piperidin-3-yl)benzamide] | 7.00
9 | Cc1cccc2ccnc(N(C(=O)c3ccc(Nc4ncc(F)cn4)cc3F)[C@@H]3CCCNC3)c12 [Example 409, (R)-2-fluoro-4-((5-fluoropyrimidin-2-yl)amino)-N-(8-methylisoquinolin-1-yl)-N-(piperidin-3-yl)benzamide] | 7.27
10 | O=C(c1ccc(-n2nnc3cccnc32)cc1F)N(c1nccc2sc(-c3csc(CO)n3)cc12)[C@@H]1CCCNC1 [Example 427, 2-fluoro-N-[2-[2-(hydroxymethyl)thiazol-4-yl]thieno[3,2-c]pyridin-4-yl]-N-[(3R)-3-piperidyl]-4-(triazolo[4,5-b]pyridin-3-yl)benzamide] | 6.68
11 | Cc1cc(-n2nnc3cccnc32)ccc1C(=O)N(c1nccc2cccc(C)c12)[C@@H]1CCCNC1 [Example 306, (R)-4-(3H-[1,2,3]triazolo[4,5-b]pyridin-3-yl)-2-methyl-N-(8-methylisoquinolin-1-yl)-N-(piperidin-3-yl)benzamide] | 7.24
12 | Cc1ccnc(Nc2ccc(C(=O)N(c3nccc4cccc(C)c34)[C@@H]3CCCNC3)c(F)c2)n1 [Example 319, (R)-2-fluoro-N-(8-methylisoquinolin-1-yl)-4-((4-methylpyrimidin-2-yl)amino)-N-(piperidin-3-yl)benzamide] | 7.18
13 | Cc1cccc2ccnc(N(C(=O)c3ccc(-c4nnc5n4CCCC5)cc3F)[C@@H]3CCCNC3)c12 [Example 432, (R)-2-fluoro-N-(8-methylisoquinolin-1-yl)-N-(piperidin-3-yl)-4-(5,6,7,8-tetrahydro-[1,2,4]triazolo[4,3-a]pyridin-3-yl)benzamide] | 6.40
14 | O=C(c1ccc(-n2nnc3cccnc32)cc1F)N(c1nccc2sc(-c3nc4ccccn4n3)cc12)[C@@H]1CCCNC1 [Example 450, 2-fluoro-N-[(3R)-3-piperidyl]-N-[2-([1,2,4]triazolo[1,5-a]pyridin-2-yl)thieno[3,2-c]pyridin-4-yl]-4-(triazolo[4,5-b]pyridin-3-yl)benzamide] | 6.52
15 | CNC(=O)c1cc(-c2cc3c(N(C(=O)c4ccc(-n5nnc6cccnc65)cc4F)[C@@H]4CCCNC4)nccc3s2)ccn1 [Example 374, 4-[4-[[2-fluoro-4-(triazolo[4,5-b]pyridin-3-yl)benzoyl]-[(3R)-3-piperidyl]amino]thieno[3,2-c]pyridin-2-yl]-N-methyl-pyridine-2-carboxamide] | 6.22
16 | Cc1cccc2ccnc(N(C(=O)c3cccc(C#CCCO)c3)[C@@H]3CCCNC3)c12 [Example 512, (R)-3-(4-hydroxybut-1-yn-1-yl)-N-(8-methylisoquinolin-1-yl)-N-(piperidin-3-yl)benzamide] | 5.96
17 | COCc1cn(-c2ccc(C(=O)N(c3nccc4cc(Cl)cc(C)c34)[C@@H]3CCCNC3)cn2)nn1 [Example 631, (R)—N-(6-chloro-8-methylisoquinolin-1-yl)-6-(4-(methoxymethyl)-1H-1,2,3-triazol-1-yl)-N-(piperidin-3-yl)nicotinamide] | 7.00
18 | O=C(c1ccc(-n2nnc3cccnc32)cc1F)N(c1nccc2sc(-c3ccc(C(F)(F)F)nc3)cc12)[C@@H]1CCCNC1 [Example 454, 2-fluoro-N-[(3R)-3-piperidyl]-4-(triazolo[4,5-b]pyridin-3-yl)-N-[2-[6-(trifluoromethyl)-3-pyridyl]thieno[3,2-c]pyridin-4-yl]benzamide] | 6.00
19 | O=C(O)CCc1ccc2c(N(C(=O)c3ccc(-n4nnc5cccnc54)cc3F)[C@@H]3CCCNC3)nccc2c1 [Example 407] | < 5.00
20 | Cn1cc(-c2ccc(C(=O)N(c3nccc4sc(-c5ccc6cc[nH]c6c5)cc34)[C@@H]3CCCNC3)c(F)c2)nn1 [Example 543, 2-fluoro-N-[2-(1H-indol-6-yl)thieno [3,2-c]pyridin-4-yl]-4-(1-methyltriazol-4-yl)-N-[(3R)-3-piperidyl] benzamide] | 6.51
21 | Nc1ccc(-c2cc3c(N(C(=O)c4ccc(-n5nnc6cccnc65)cc4F)[C@@H]4CCCNC4)nccc3s2)cn1 [Example 553, N-[2-(6-amino-3-pyridyl)thieno[3,2-c]pyridin-4-yl]-2-fluoro-N-[(3R)-3-piperidyl]-4-(triazolo[4,5-b]pyridin-3-yl)benzamide] | 7.11
22 | O=C(c1ccc(-n2nnc3cccnc32)cc1F)N(c1cc(/C=C/c2cccnc2)ccn1)[C@@H]1CCCNC1 [Example 431, 2-fluoro-N-[(3R)-3-piperidyl]-N-[4-[(E)-2-(3-pyridyl)vinyl]-2-pyridyl]-4-(triazolo[4,5-b]pyridin-3-yl)benzamide] | 5.64

Other lines, results leading:

Row | pIC50 | Compound
23 | 6.89 | Cc1cccc2ccnc(N(C(=O)c3ccc(Nc4nccc(N[C@H]5CC[C@H](O)CC5)n4)cc3F)[C@@H]3CCCNC3)c12 [Example 946, 2-fluoro-4-(4-((1r,4r)-4-hydroxycyclohexylamino)pyrimidin-2-ylamino)-N-(8-methylisoquinolin-1-yl)-N—((R)-piperidin-3-yl)benzamide]
24 | 5.72 | COc1ccc(C)c2c(N(C(=O)c3ccc(-c4nnc(C)s4)cn3)[C@@H]3CCCNC3)nccc12 [Example 870, N-(5-methoxy-8-methyl-1-isoquinolyl)-5-(5-methyl-1,3,4-thiadiazol-2-yl)-N-[(3R)-3-piperidyl]pyridine-2-carboxamide]
25 | 6.80 | CCCN(C)c1ccnc(Nc2ccc(C(=O)N(c3nccc4cccc(C)c34)[C@@H]3CCCNC3)c(F)c2)n1 [Example 745, (R)-2-fluoro-4-((4-(methyl(propyl)amino)pyrimidin-2-yl)amino)-N-(8-methylisoquinolin-1-yl)-N-(piperidin-3-yl)benzamide]
26 | 7.00 | Cc1cccc2ccnc(N(C(=O)c3ccc(Nc4nccnn4)cc3F)[C@@H]3CCCNC3)c12 [Example 953, (R)-4-(1,2,4-triazin-3-ylamino)-2-fluoro-N-(8-methylisoquinolin-1-yl)-N-(piperidin-3-yl)benzamide]
27 | 7.51 | COCCc1nnc(-c2ccc(C(=O)N(c3nccc4scc(C)c34)[C@@H]3CCCNC3)cc2)s1 [Example 633, (R)-4-(5-(2-methoxyethyl)-1,3,4-thiadiazol-2-yl)-N-(3-methylthieno[3,2-c]pyridin-4-yl)-N-(piperidin-3-yl)benzamide]
28 | 6.59 | Cc1nnc(-c2ccc(C(=O)N(c3nccc4c(Cl)ccc(C)c34)[C@@H]3CCCNC3)cc2)s1 [Example 856, N-(5-chloro-8-methyl-1-isoquinolyl)-4-(5-methyl-1,3,4-thiadiazol-2-yl)-N-[(3R)-3-piperidyl]benzamide]
29 | 6.80 | Cc1nnc(-c2ccc(C(=O)N(c3nccc4cc(Cl)cc(C)c34)[C@@H]3CCCNC3)cc2F)s1 [Example 708, (R)—N-(6-chloro-8-methylisoquinolin-1-yl)-3-fluoro-4-(5-methyl-1,3,4-thiadiazol-2-yl)-N-(piperidin-3-yl)benzamide]
30 | 6.25 | Cc1nnc(-c2ccc(C(=O)N(c3nccc4c(C)ccc(C)c34)[C@@H]3CCCNC3)cc2)s1 [Example 878, N-(5,8-dimethyl-1-isoquinolyl)-4-(5-methyl-1,3,4-thiadiazol-2-yl)-N-[(3R)-3-piperidyl]benzamide]
31 | 7.47 | COC1CCN(c2ccnc(Nc3ccc(C(=O)N(c4nccc5cccc(C)c45)[C@@H]4CCCNC4)c(F)c3)n2)CC1 [Example 716, (R)-2-fluoro-4-((4-(4-methoxypiperidin-1-yl)pyrimidin-2-yl)amino)-N-(8-methylisoquinolin-1-yl)-N-(piperidin-3-yl)benzamide]
